Test [1] deals with BJAB Burkitt lymphoma cells. In words: CellTiter-Glo Luminescent Cell Viability assay. The following applies: 72 h; for effect on BJAB cell viability: top concentration 10 uM. The class given is cell-based. The method, then:
Compounds 1 and compound 28 were evaluated in a CellTiter-Glo (CTG) Luminescence cell viability assay in BJAB Burkitt lymphoma cells that are known to be sensitive to eIF4A inhibition. This assay quantitates the number of living, metabolically active cells by measuring their ATP levels.
Cell viability assay. BJAB lymphoma cells were plated in quadruplicate at 5,000 cells/well in serial dilutions of drug ranging two logs with the top concentration of compounds tested at 10 uM. Viability was measured after 72 h using Cell Titer Glo (Promega G7573) following the manufacturer's protocol. Luminescence was detected on the BioTek HT Synergy plate reader and values were normalized to vehicle-treated (DMSO) wells. Silvestrol was included as a positive control (not shown).
For orientation: ATP-based viability assays read luminescence as a measure of living cells.

Test [2] deals with T1, eIF4A (Homo sapiens, UniProt P60842). In words: FAM-RNA fluorescence polarization assay. Type of test: binding. Also on record: 6xHis with TEV protease site (N, cleaved yes); made in house; host or cells: E. coli BL21-CodonPlus. The following applies: FAM-A(CAA)5 RNA; for IC50: 2 μM eIF4A, read-out: IC50, FAM-RNA FP assay. The method, then: Next, an FP assay was performed with a fluorescent, eIF4A-binding RNA oligo (FAM-A(CAA)5) as the fluorophore. […] This same assay was used to investigate if changing the identity of the RNA fluorophore affected the ability of compound 28 to compete the RNA off eIF4A. […] This is evidence that compound 28 inhibits the RNA-eIF4A interaction by binding eIF4A and not the RNA.
FAM-RNA fluorescence polarization assay. Oligos were purchased from Integrated DNA Technologies using RNase free preparations. Recombinant eIF4A (2 μM) was incubated with 25 nM FAM-labelled RNA for 30 min in FP Buffer (15 mM HEPES-NaOH (pH 8), 100 mM NaCl, 1 mM MgCl2, 15% glycerol, 2 mM DTT, 2 mM AMPPNP) at 22° C. in low-volume black 384 well plates (Greiner). eIF4A was incubated with compound for 20 min prior to the addition of FAM-RNA. Plate was incubated for another 30 min before fluorescence polarization was read at 485:535 nm (Ex:Em) on a SpectraMax iD5 plate reader (Molecular Devices. IC50 values were calculated using GraphPad Prism v6.0.
(Polarisation of emitted light reports the rotation of a fluorescent probe.)

Test [3] addresses T1, eIF4A. The test can be described thus: Helicase (duplex unwinding) assay. The class given is biochemical. Also on record: 6xHis with TEV protease site (N, cleaved yes); made in house; host or cells: E. coli BL21-CodonPlus. The following applies: Cy3-RNA/DNA duplex, 2.5 μM eIF4A, 2 mM ATP. The method, then:
A functional duplex unwinding assay with a duplex nucleic acid substrate was utilized to test if compound 1 and compound 28 could inhibit eIF4A helicase activity. This unwinding assay features a Cy3-labeled RNA strand annealed to a DNA strand with a long overhang that eIF4A can bind (FIG. 9, top right). When ATP is added to protein and substrate, eIF4A unwinds the duplex, leaving an unlabeled DNA strand and a Cy3-labeled single stranded RNA. When visualized on a native gel, the larger intact fluorescent duplex substrate will run higher on the gel than the smaller unwound single-stranded fluorescent RNA. The ratio of these two Cy3 signals can be used to determine the helicase activity of eIF4A in each condition.
Dose responses of compound 1 and compound 28 were conducted using this assay. […] The intensity of each band in each gel lane was quantified by densitometry to obtain IC50 values for compound 1 and compound 28 in this assay. […]
Helicase assay. […] All products were analyzed by electrophoresis on 20% native polyacrylamide (37.5:1 acrylamide:bisacrylamide) gels. Gels were run at 4° C. for 2 hours and Cy3 signal was detected on an Azure 600 Fluorescent Imaging System (Azure Biosystems) at 524 nm:572 nm (Ex:Em). Cy3 signal was quantified by gel band densitometry performed using ImageJ32 (NIH). IC50 values were calculated using GraphPad Prism v6.0.

“Also recorded” adds a separate entry of the source.

By EC50 is commonly meant the concentration that produces a half-maximal response. Usually IC50 stands for the concentration that inhibits the measured activity by half.

T1 sequence (P60842 whole entry): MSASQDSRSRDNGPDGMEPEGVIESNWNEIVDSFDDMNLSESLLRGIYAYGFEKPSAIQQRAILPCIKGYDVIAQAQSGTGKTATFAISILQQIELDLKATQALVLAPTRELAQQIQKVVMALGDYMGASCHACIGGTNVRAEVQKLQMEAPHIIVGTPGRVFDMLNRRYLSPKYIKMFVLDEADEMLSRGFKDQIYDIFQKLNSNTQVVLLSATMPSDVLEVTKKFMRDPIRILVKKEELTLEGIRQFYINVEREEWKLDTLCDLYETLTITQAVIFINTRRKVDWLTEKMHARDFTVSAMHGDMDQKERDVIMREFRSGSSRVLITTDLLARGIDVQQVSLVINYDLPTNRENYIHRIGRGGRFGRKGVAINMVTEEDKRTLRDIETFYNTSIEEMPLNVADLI

For the compound `CCCCc1ccc(-c2ccc(-c3cc(C(=O)O)c4cc(Br)ccc4n3)o2)cc1` [Compound 1, 6-bromo-2-(5-(4-butylphenyl)furan-2-yl)quinoline-4-carboxylic acid], the “effect on BJAB cell viability” value in test [1] is given as “decrease BJAB cell viability”. Besides, the EC50 in test [1] (Homo sapiens, CellTiter-Glo, n=4) is 2.13 ± 0.17 µM. Moreover, at eIF4A [2], the “competition of fluorescent RNA off eIF4A” value is “able to compete the fluorescent RNA off of eIF4A” and the IC50 is 161 ± 9.8 µM. Further, the “inhibition of eIF4A duplex unwinding” value at eIF4A [3] was “inhibit eIF4A duplex unwinding”.
Turning to `CCCCc1ccc(-c2ccc(-c3cc(C(=O)O)c4cc([N+](=O)[O-])ccc4n3)o2)cc1` [Compound 28, 2-(5-(4-butylphenyl)furan-2-yl)-6-nitroquinoline-4-carboxylic acid], the “effect on BJAB cell viability” value in test [1] is “three to four times more potent than 1; also recorded: decrease BJAB cell viability”. In addition, at eIF4A [2], the “competition of fluorescent RNA off eIF4A” value is on record as “able to compete the fluorescent RNA off of eIF4A; also recorded: about three-fold more potent than 1” and the IC50 amounted to 58.3 ± 2.5 µM. In addition, the “inhibition of eIF4A duplex unwinding” value against eIF4A [3] is on record as “about four-fold more potent than compound 1; also recorded: inhibit eIF4A duplex unwinding”.

(Values after patent US20240360107A1, “AN EIF4A INHIBITOR WITH A NOVEL MECHANISM OF ACTION” (ARIZONA BOARD OF REGENTS ON BEHALF OF THE UNIVERSITY OF …, priority 2021, published 2024).)
